Experimental data taken from publication PMC3766616, “Coniferyl Ferulate, a Strong Inhibitor of Glutathione S-Transferase Isolated from Radix Angelicae sinensis, Reverses Multidrug Resistance and Downregulates P-Glycoprotein” (Evidence-based Complementary and Alternative Medicine : eCAM, 2013).

Molecular target: T1, Glutathione S-transferase (mainly GSTP1-1, from human placenta) (Homo sapiens, UniProt P09211)
T1 construct: GST from human placenta (mainly GSTP1-1), Sigma
Assay: GSH/CDNB conjugation assay at […] nm; Hanes plot kinetics
Format: biochemical

T1 sequence (P09211 2-210): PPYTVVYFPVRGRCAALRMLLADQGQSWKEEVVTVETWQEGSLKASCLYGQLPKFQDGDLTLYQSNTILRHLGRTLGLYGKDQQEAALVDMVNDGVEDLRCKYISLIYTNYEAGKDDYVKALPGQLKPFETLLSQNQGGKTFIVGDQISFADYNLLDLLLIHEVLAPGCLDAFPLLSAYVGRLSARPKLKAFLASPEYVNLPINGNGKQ

IC50: 300 nM
Structure (SMILES): COc1cc(/C=C/COC(=O)/C=C/c2ccc(O)c(OC)c2)ccc1O [CF, Coniferyl ferulate]
